≈ marks a conversion by molar mass, not a printed value. Read-outs that look alike come from different tables or passages of the source. Where a SMILES comes first, the peptide text is derived from it. Bridges are numbered along the chain shown (N, C = ends). [ ]: non-standard residue; d: D form. The star is where a group is joined. Pyrrole2carbonyl(4,5-Br2) = O=C(c1cc(Br)c(Br)[nH]1)*; Propanoyl(3-indol-3-yl) = O=C(CCc1c[nH]c2ccccc12)*; Quinoxaline2carbonyl = O=C(c1cnc2ccccc2n1)*; X66 = O=C(c1c[nH]c(-c2ccccc2)n1)*; X16 = O=C(c1cnc(-c2ccccc2)nc1)*; X44 = O=C(c1cc(-c2ccccc2)no1)*; X4 = O=C(c1cncc(C(F)(F)F)c1)*; X34 = O=C(c1cc(Br)c(Br)o1)*; Dab = NCC[C@H](N)C(=O)O; Abu = CC[C@H](N)C(=O)O; Dap = NC[C@H](N)C(=O)O
How the values were obtained:
Type in all cases: cell-based
[1] = system: Acinetobacter baumannii FADDI-AB030; assay: microbe, parasite or virus in culture
How it was run: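 Broth microdilution MIC in cation-adjusted Mueller-Hinton broth per CLSI M100-S24; lipopeptides tested as TFA salts. FADDI-AB030 is a multidrug-resistant clinical isolate. Polymyxin B sulphate served as control.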

[2] = system: Pseudomonas aeruginosa ATCC 27853
How it was run: (§1)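 MICs were determined by broth microdilution in cation-adjusted Mueller-Hinton broth following the CLSI M100-S24 protocol. Lipopeptides were tested as trifluoroacetic acid salts against polymyxin-susceptible Gram-negative strains, with polymyxin B sulphate as control. FADDI-PA022 and FADDI-AB034 are multidrug-resistant clinical isolates.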

[3] = system: Pseudomonas aeruginosa FADDI-PA022
How it was run: as §1

[4] = system: Enterobacter cloacae FADDI-EC001
How it was run: (§2)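 Broth microdilution MIC per CLSI in cation-adjusted Mueller-Hinton broth, lipopeptides tested as TFA salts. Polymyxin B sulphate served as control.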

[5] = system: Acinetobacter baumannii ATCC 17978
How it was run: as §1

[6] = system: Pseudomonas aeruginosa FADDI-PA01
How it was run: as §1

[7] = system: Acinetobacter baumannii FADDI-AB034
How it was run: as §1

[8] = system: Enterobacter cloacae FADDI-EC003
How it was run: as §1

[9] = system: Enterobacter cloacae FADDI-EC006
How it was run: as §1

[10] = system: Klebsiella pneumoniae FADDI-KP022
How it was run: as §1

[11] = system: Klebsiella pneumoniae FADDI-KP032
How it was run: as §1

[12] = system: Klebsiella pneumoniae Kp BM1
How it was run: as §2

[13] = system: Pseudomonas aeruginosa FADDI-PA038
How it was run: as §1

SMILES | Minimum inhibitory concentration ([1]; FADDI-AB030) | Minimum inhibitory concentration ([2]; ATCC 27853) | Minimum inhibitory concentration ([3]; FADDI-PA022) | Minimum inhibitory concentration ([4]; FADDI-EC001) | Minimum inhibitory concentration ([5]; ATCC 17978) | Minimum inhibitory concentration ([6]; FADDI-) | Minimum inhibitory concentration ([7]; FADDI-AB034) | Minimum inhibitory concentration ([8]; FADDI-EC003) | Minimum inhibitory concentration ([9]; FADDI-EC006) | Minimum inhibitory concentration ([10]; FADDI-KP022) | Minimum inhibitory concentration ([11]; FADDI-KP032) | Minimum inhibitory concentration ([12]; Kp BM1) | Minimum inhibitory concentration ([13]; FADDI-PA038) | other results
CC[C@@H]1NC(=O)[C@@H](CC(C)C)NC(=O)[C@H](CCN)NC(=O)[C@@H](NC(=O)[C@H](CN)NC(=O)[C@@H](NC(=O)[C@H](CCN)NC(=O)c2cncc(C(F)(F)F)c2)[C@@H](C)O)CCNC(=O)[C@H]([C@@H](C)O)NC(=O)[C@H](CCN)NC(=O)[C@H](CCN)NC1=O [Compound 20] (X4-[Dab]T[Dap][Dab][Dab][dL][Abu][Dab][Dab]T; lactam 4-C) | 0.5 µg/mL (≈ 0.431 µM) | 0.5 µg/mL (≈ 0.431 µM) | 0.5 µg/mL (≈ 0.431 µM) | 0.5 µg/mL (≈ 0.431 µM) | 2 µg/mL (≈ 1.72 µM) | 0.5 µg/mL (≈ 0.431 µM) | 0.5 µg/mL (≈ 0.431 µM) | 4 µg/mL (≈ 3.45 µM) | 0.5 µg/mL (≈ 0.431 µM) | <0.125 µg/mL | 0.5 µg/mL (≈ 0.431 µM) | 0.25 µg/mL (≈ 0.215 µM) | 0.5 µg/mL (≈ 0.431 µM) | –
CC[C@@H]1NC(=O)[C@@H](CC(C)C)NC(=O)[C@H](CCN)NC(=O)[C@@H](NC(=O)[C@H](CN)NC(=O)[C@@H](NC(=O)[C@H](CCN)NC(=O)c2cc(Br)c(Br)[nH]2)[C@@H](C)O)CCNC(=O)[C@H]([C@@H](C)O)NC(=O)[C@H](CCN)NC(=O)[C@H](CCN)NC1=O [Compound 77] ({Pyrrole2carbonyl(4,5-Br2)}-[Dab]T[Dap][Dab][Dab][dL][Abu][Dab][Dab]T; lactam 4-C) | 0.25 µg/mL (≈ 0.202 µM) | 0.25 µg/mL (≈ 0.202 µM) | 0.5 µg/mL (≈ 0.404 µM) | 0.25 µg/mL (≈ 0.202 µM) | 0.5 µg/mL (≈ 0.404 µM) | 0.25 µg/mL (≈ 0.202 µM) | 0.25 µg/mL (≈ 0.202 µM) | 0.25 µg/mL (≈ 0.202 µM) | <0.125 µg/mL | <0.125 µg/mL | 0.25 µg/mL (≈ 0.202 µM) | <0.125 µg/mL | 1 µg/mL (≈ 0.808 µM) | –
CC[C@@H]1NC(=O)[C@@H](CC(C)C)NC(=O)[C@H](CCN)NC(=O)[C@@H](NC(=O)[C@H](CN)NC(=O)[C@@H](NC(=O)[C@H](CCN)NC(=O)c2c[nH]c(-c3ccccc3)n2)[C@@H](C)O)CCNC(=O)[C@H]([C@@H](C)O)NC(=O)[C@H](CCN)NC(=O)[C@H](CCN)NC1=O [Compound 82] (X66-[Dab]T[Dap][Dab][Dab][dL][Abu][Dab][Dab]T; lactam 4-C) | – | – | – | – | – | – | – | – | – | – | – | – | – | Minimum inhibitory concentration ([1]; A. baumannii FADDI-AB030, CAMHB broth microdilution): 4 µg/mL (≈ 3.46 µM); Minimum inhibitory concentration ([2]; P. aeruginosa ATCC 27853, CAMHB broth microdilution): 0.5 µg/mL (≈ 0.432 µM); Minimum inhibitory concentration ([3]; P. aeruginosa FADDI-PA022, CAMHB broth microdilution): 0.5 µg/mL (≈ 0.432 µM); Minimum inhibitory concentration ([4]; E. cloacae FADDI-EC001, CAMHB broth microdilution): 0.25 µg/mL (≈ 0.216 µM); Minimum inhibitory concentration ([5]; A. baumannii ATCC 17978, CAMHB broth microdilution): 2 µg/mL (≈ 1.73 µM); Minimum inhibitory concentration ([6]; P. aeruginosa FADDI-PA01, CAMHB broth microdilution): 0.5 µg/mL (≈ 0.432 µM); Minimum inhibitory concentration ([7]; A. baumannii FADDI-AB034, CAMHB broth microdilution): 8 µg/mL (≈ 6.91 µM); Minimum inhibitory concentration ([8]; E. cloacae FADDI-EC003, CAMHB broth microdilution): 0.25 µg/mL (≈ 0.216 µM); Minimum inhibitory concentration ([9]; E. cloacae FADDI-EC006, CAMHB broth microdilution): 0.5 µg/mL (≈ 0.432 µM); Minimum inhibitory concentration ([10]; K. pneumoniae FADDI-KP022, CAMHB broth microdilution): <0.125 µg/mL; Minimum inhibitory concentration ([11]; K. pneumoniae FADDI-KP032, CAMHB broth microdilution): 0.5 µg/mL (≈ 0.432 µM); Minimum inhibitory concentration ([12]; K. pneumoniae Kp BM1, CAMHB broth microdilution): 1 µg/mL (≈ 0.864 µM); Minimum inhibitory concentration ([13]; P. aeruginosa FADDI-PA038, CAMHB broth microdilution): 2 µg/mL (≈ 1.73 µM)
CC[C@@H]1NC(=O)[C@@H](CC(C)C)NC(=O)[C@H](CCN)NC(=O)[C@@H](NC(=O)[C@H](CN)NC(=O)[C@@H](NC(=O)[C@H](CCN)NC(=O)c2cc(-c3ccccc3)no2)[C@@H](C)O)CCNC(=O)[C@H]([C@@H](C)O)NC(=O)[C@H](CCN)NC(=O)[C@H](CCN)NC1=O [Compound 87] (X44-[Dab]T[Dap][Dab][Dab][dL][Abu][Dab][Dab]T; lactam 4-C) | 0.5 µg/mL (≈ 0.432 µM) | 1 µg/mL (≈ 0.863 µM) | 0.5 µg/mL (≈ 0.432 µM) | <0.125 µg/mL | 0.5 µg/mL (≈ 0.432 µM) | 0.5 µg/mL (≈ 0.432 µM) | 0.5 µg/mL (≈ 0.432 µM) | <0.125 µg/mL | 0.25 µg/mL (≈ 0.216 µM) | <0.125 µg/mL | 0.25 µg/mL (≈ 0.216 µM) | 0.5 µg/mL (≈ 0.432 µM) | 1 µg/mL (≈ 0.863 µM) | –
CC[C@@H]1NC(=O)[C@@H](CC(C)C)NC(=O)[C@H](CCN)NC(=O)[C@@H](NC(=O)[C@H](CN)NC(=O)[C@@H](NC(=O)[C@H](CCN)NC(=O)c2cnc(-c3ccccc3)nc2)[C@@H](C)O)CCNC(=O)[C@H]([C@@H](C)O)NC(=O)[C@H](CCN)NC(=O)[C@H](CCN)NC1=O [Compound 73] (X16-[Dab]T[Dap][Dab][Dab][dL][Abu][Dab][Dab]T; lactam 4-C) | 0.5 µg/mL (≈ 0.428 µM) | 0.5 µg/mL (≈ 0.428 µM) | 0.5 µg/mL (≈ 0.428 µM) | <0.125 µg/mL | 0.5 µg/mL (≈ 0.428 µM) | 0.5 µg/mL (≈ 0.428 µM) | 0.5 µg/mL (≈ 0.428 µM) | 0.5 µg/mL (≈ 0.428 µM) | 1 µg/mL (≈ 0.855 µM) | <0.125 µg/mL | <0.125 µg/mL | <0.125 µg/mL | 2 µg/mL (≈ 1.71 µM) | –
CC[C@@H]1NC(=O)[C@@H](CC(C)C)NC(=O)[C@H](CCN)NC(=O)[C@@H](NC(=O)[C@H](CN)NC(=O)[C@@H](NC(=O)[C@H](CCN)NC(=O)c2cc(Br)c(Br)o2)[C@@H](C)O)CCNC(=O)[C@H]([C@@H](C)O)NC(=O)[C@H](CCN)NC(=O)[C@H](CCN)NC1=O [Compound 79] (X34-[Dab]T[Dap][Dab][Dab][dL][Abu][Dab][Dab]T; lactam 4-C) | 0.25 µg/mL (≈ 0.202 µM) | 0.25 µg/mL (≈ 0.202 µM) | 0.25 µg/mL (≈ 0.202 µM) | <0.125 µg/mL | 0.5 µg/mL (≈ 0.404 µM) | 1 µg/mL (≈ 0.807 µM) | 0.5 µg/mL (≈ 0.404 µM) | <0.125 µg/mL | 0.25 µg/mL (≈ 0.202 µM) | <0.125 µg/mL | <0.125 µg/mL | 0.25 µg/mL (≈ 0.202 µM) | 0.5 µg/mL (≈ 0.404 µM) | –
CC[C@@H]1NC(=O)[C@@H](CC(C)C)NC(=O)[C@H](CCN)NC(=O)[C@@H](NC(=O)[C@H](CN)NC(=O)[C@@H](NC(=O)[C@H](CCN)NC(=O)CCc2c[nH]c3ccccc23)[C@@H](C)O)CCNC(=O)[C@H]([C@@H](C)O)NC(=O)[C@H](CCN)NC(=O)[C@H](CCN)NC1=O [Compound 104] ({Propanoyl(3-indol-3-yl)}-[Dab]T[Dap][Dab][Dab][dL][Abu][Dab][Dab]T; lactam 4-C) | 0.5 µg/mL (≈ 0.432 µM) | 0.25 µg/mL (≈ 0.216 µM) | 0.25 µg/mL (≈ 0.216 µM) | <0.125 µg/mL | 0.5 µg/mL (≈ 0.432 µM) | <0.125 µg/mL | 0.5 µg/mL (≈ 0.432 µM) | <0.125 µg/mL | 0.25 µg/mL (≈ 0.216 µM) | <0.125 µg/mL | <0.125 µg/mL | <0.125 µg/mL | 0.5 µg/mL (≈ 0.432 µM) | –
CC[C@@H]1NC(=O)[C@@H](CC(C)C)NC(=O)[C@H](CCN)NC(=O)[C@@H](NC(=O)[C@H](CN)NC(=O)[C@@H](NC(=O)[C@H](CCN)NC(=O)c2cnc3ccccc3n2)[C@@H](C)O)CCNC(=O)[C@H]([C@@H](C)O)NC(=O)[C@H](CCN)NC(=O)[C@H](CCN)NC1=O [Compound 46] (Quinoxaline2carbonyl-[Dab]T[Dap][Dab][Dab][dL][Abu][Dab][Dab]T; lactam 4-C) | 2 µg/mL (≈ 1.75 µM) | 0.5 µg/mL (≈ 0.437 µM) | 0.5 µg/mL (≈ 0.437 µM) | 0.25 µg/mL (≈ 0.219 µM) | 4 µg/mL (≈ 3.5 µM) | 0.25 µg/mL (≈ 0.219 µM) | 4 µg/mL (≈ 3.5 µM) | 0.25 µg/mL (≈ 0.219 µM) | 2 µg/mL (≈ 1.75 µM) | <0.125 µg/mL | <0.125 µg/mL | 0.25 µg/mL (≈ 0.219 µM) | 0.5 µg/mL (≈ 0.437 µM) | –

From patent US11225505B2, “Antimicrobial polymyxin derivative compounds” (MONASH UNIVERSITY, priority 2015, dated 2022)
